Laboratory results: US12590062B2, “PD-1/PD-L1 inhibitors” (Gilead Sciences, Inc., priority 2017, dated 2026)

Experiments:
[1] = biological target: PD-1/PD-L1 (Homo sapiens, UniProt Q9NZQ7); assay: PD-1/PD-L1 biochemical protein-protein interaction assay (ALPHA); format: binding; conditions: 0.3 nM His tagged PD-L1, 2.5 nM biotinylated Fc-PD-1, 60 minutes at 25° C., read-out: IC50 PD-L1-PD-1 Alpha IC50-mono PD-L1-fcP-D1
Procedure, shortened: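 ALPHA bead proximity assay of extracellular domains: 0.3 nM His-PD-L1 with 2.5 nM biotinylated Fc-PD-1 in 25 mM Hepes pH 7.4, 150 mM NaCl, 3.4 mM EDTA, 0.005% Tween 20, 0.01% BSA, 60 min at 25 °C. Anti-His acceptor and streptavidin donor beads added; IC50 from four-parameter fit of signal loss.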

[2] = biological target: T1, PD-1/PD-L1 interaction (Homo sapiens, UniProt Q9NZQ7); assay: PD-1/PD-L1 NFAT reporter co-culture assay; format: cell-based; conditions: Jurkat PD-1 NFAT-luciferase cells co-cultured with aAPC-PD-L1 CHO cells, 6 hrs at 37° C.; read-out: EC50 NFAT Luciferase
T1 construct: expressed in transfected cells; host or cells: CHO cells (aAPC-PD-L1) co-cultured with Jurkat cells overexpressing PD-1 and an NFAT-luciferase reporter
Procedure, shortened: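 First, CHO cells displaying anti-CD3 antibody and PD-L1 were plated overnight. Next, compound-treated PD-1 Jurkat NFAT-luciferase reporter cells in 2% FBS RPMI were added for 6 h at 37 °C. Finally, ONE-Glo luminescence was read and EC50 values fitted with a four-parameter equation.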

[3] = biological target: T2, PD-L1 (Homo sapiens, UniProt Q9NZQ7); assay: PD-L1/PD-L1 dimerization biochemical protein-protein interaction assay (ALPHA); format: binding; conditions: compound-induced PD-L1 dimerization, head prints '1 nM' (0.5 nM His-tagged PD-L1 and 0.5 nM FLAG-tagged PD-L1), read-out: AC50 PDL1 Dimer Alpha 1 nM
T2 construct: determine if they can specifically dimerize the extracellular domains of PD-L1
Procedure, shortened: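 ALPHA proximity assay of compound-induced dimerization of 0.5 nM His-tagged and 0.5 nM FLAG-tagged PD-L1 extracellular domains in Hepes pH 7.4 buffer, 2 h at 25 °C. Anti-His acceptor then anti-FLAG donor beads, 60 min each; AC50 from four-parameter fit.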

Chain of PD-1/PD-L1 (Q9NZQ7 19-238 limits assumed): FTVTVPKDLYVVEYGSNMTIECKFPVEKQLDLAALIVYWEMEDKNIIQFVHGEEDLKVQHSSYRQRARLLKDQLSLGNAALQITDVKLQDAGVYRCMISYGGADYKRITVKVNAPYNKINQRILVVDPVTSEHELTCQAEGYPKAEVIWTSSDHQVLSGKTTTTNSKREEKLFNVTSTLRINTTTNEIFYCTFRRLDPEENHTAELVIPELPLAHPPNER
T2 sequence (Q9NZQ7 19-238 limits assumed): as above
T2 sequence (Q9NZQ7 19-238 limits assumed): as above
T1 sequence (Q9NZQ7 19-290): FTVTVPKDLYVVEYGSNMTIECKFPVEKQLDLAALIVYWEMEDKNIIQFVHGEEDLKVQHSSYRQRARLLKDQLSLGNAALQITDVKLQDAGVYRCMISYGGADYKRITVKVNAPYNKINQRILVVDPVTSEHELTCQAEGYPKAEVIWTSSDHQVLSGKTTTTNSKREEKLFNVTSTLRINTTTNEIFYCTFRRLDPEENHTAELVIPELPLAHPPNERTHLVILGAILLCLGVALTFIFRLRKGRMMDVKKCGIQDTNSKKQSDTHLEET

Row | SMILES | IC50 [1] [nM] | EC50 [2] [nM] | AC50 [3] [nM]
1 | Cc1c(COc2cc(OCc3cncc(C#N)c3)c(CN[C@@](C)(CO)C(=O)O)cc2Cl)cccc1-c1cccc(-c2ccc3c(c2)ncc(=O)n3CCN(C)C)c1C [Example 469] | 0.064 | 125 | 73.5
2 | Cc1c(COc2cc(OCc3cncc(C(N)=O)c3)c(CN[C@@](C)(CO)C(=O)O)cc2Cl)cccc1-c1cccc(-c2ccc3c(c2)[C@@H](O)C[C@H]3N)c1C [Example 470] | 0.096 | 217 | 127
3 | Cc1c(COc2nc(OCc3cc(C#N)cc(C#N)c3)c(CNC(C)(CO)C(=O)O)cc2Cl)cccc1-c1cccc(-c2ccc(OCCNCCO)cc2)c1C (stereo not drawn) [Example 471] | 0.205 | 144 | 80
4 | Cc1c(COc2cc(OCc3cncc(C#N)c3)c(CNC[C@@H](O)CC(=O)O)cc2Cl)cccc1-c1cccc(-c2ccc3c(c2)CC(NCCO)C3)c1C (stereo partly drawn) [Example 473] | 0.159 | 86 | 76.8
5 | Cc1c(COc2cc(OCc3cncc(C#N)c3)c(CNC[C@@H](O)CC(=O)O)cc2Cl)cccc1-c1cccc(-c2ccc3c(c2)CC(NCC(=O)O)C3)c1C (stereo partly drawn) [Example 474] | 0.064 | 59 | 137
6 | Cc1c(COc2cc(OCc3cncc(C#N)c3)c(CN[C@@](C)(CO)C(=O)O)cc2Cl)cccc1-c1cccc(-c2ccc3c(cnn3CCN3CC[C@@H](O)C3)n2)c1C [Example 475] | 0.088 | 117 | 134
7 | Cn1cc(CN2CC3(CCC(=O)N3)C2)c2ccc(-c3cccc(-c4cccc(-c5ccc6c(CN7CC8(CCC(=O)N8)C7)cn(C)c6n5)c4Cl)c3Cl)nc21 [Example 476] | 1.11 | 196 | 149
8 | COc1cc(-c2cccc(-c3cccc(-c4ccc(CNC[C@@H]5CCC(=O)N5)c(OC)c4)c3Br)c2Br)ccc1CNC[C@@H]1CCC(=O)N1 [Example 477] | 1.04 | 179 | 360
9 | C[C@@](CO)(NCc1cc(Cl)c(OCc2cccc(-c3cccc(COc4cc(OCc5cncc(C#N)c5)c(CN[C@@](C)(CO)C(=O)O)cc4Cl)c3Br)c2Br)cc1OCc1cncc(C#N)c1)C(=O)O [Example 478] | 0.064 | 48 | 268
10 | N#Cc1cncc(COc2cc(OCc3cccc(-c4cccc(COc5cc(OCc6cncc(C#N)c6)c(CNC[C@@H](O)CC(=O)O)cc5Cl)c4Br)c3Br)c(Cl)cc2CNC[C@@H](O)CC(=O)O)c1 [Example 479] | 0.098 | 45 | 348
11 | Cc1c(COc2cc(OCc3cncc(C#N)c3)c(CNCCO)cc2Cl)cccc1-c1cccc(COc2cc(OCc3cncc(C#N)c3)c(CNCCO)cc2Cl)c1Br [Example 480] | 1.12 | 147 | 114
12 | Cc1c(COc2cc(OCc3cncc(C#N)c3)c(CN[C@@](C)(CO)C(=O)O)cc2Cl)cccc1-c1cccc(COc2cc(OCc3cncc(C#N)c3)c(CN[C@@](C)(CO)C(=O)O)cc2Cl)c1Br [Example 481] | 0.064 | 155 | 92.9
13 | Cc1c(COc2cc(OCc3cncc(C#N)c3)c(CNC(C)(C)C(=O)O)cc2Cl)cccc1-c1cccc(-c2ccc(CN(C)C)cc2)c1Br [Example 482] | 0.064 | 47 | 25.5
14 | Cc1c(COc2cc(OCc3cncc(C#N)c3)c(CN[C@@](C)(CO)C(=O)O)cc2Cl)cccc1-c1cccc(-c2ccc(CN(C)C)cc2)c1Br [Example 483] | 0.064 | 69 | 40.9
15 | Cc1c(COc2cc(OCc3cncc(C#N)c3)c(CNC[C@@H](O)CC(=O)O)cc2Cl)cccc1-c1cccc(-c2ccc(CN(C)C)cc2)c1Br [Example 484] | 0.205 | 138 | 108
16 | CS(=O)(=O)c1cncc(COc2nc(OCc3cccc(-c4cccc(-c5ccc(OCCNCCO)cc5)c4Cl)c3Cl)c(Cl)cc2CNC[C@@H](O)CC(=O)O)c1 [Example 485] | 0.321 | 200 | 61.3

Row | SMILES | IC50 [1] [nM] | EC50 [2] [nM] | AC50 [3] [nM]
17 | COc1nc(O[C@H]2CCc3c(-c4cccc(-c5cc(C)c(CNC[C@@H]6CCC(=O)N6)c(OC)n5)c4Cl)cccc32)c(Cl)cc1CN1CC(C(=O)O)C1 [Example 487] | 0.064 | 16 | 25.2
18 | COc1nc(O[C@H]2CCc3c(-c4cccc(-c5cc(C)c(CNC[C@@H]6CCC(=O)N6)c(OC)n5)c4Cl)cccc32)c(Cl)cc1CN1CC[C@@](C)(C(=O)O)C1 [Example 488] | 0.064 | 26 | 25.6
19 | COc1nc(O[C@H]2CCc3c(-c4cccc(-c5cc(C)c(CNC[C@@H]6CCC(=O)N6)c(OC)n5)c4Cl)cccc32)c(Cl)cc1CN1CC[C@](C)(C(=O)O)C1 [Example 489] | 0.064 | 18 | 18.3
20 | COc1nc(O[C@H]2CCc3c(-c4cccc(-c5cc(C)c(CNC[C@@H]6CCC(=O)N6)c(OC)n5)c4Cl)cccc32)c(Cl)cc1CN1CC[C@@H](C(=O)O)C1 [Example 490] | 0.064 | 19 | 14.1
21 | COc1nc(O[C@H]2CCc3c(-c4cccc(-c5cc(C)c(CNC[C@@H]6CCC(=O)N6)c(OC)n5)c4Cl)cccc32)c(Cl)cc1CN1CC[C@H](C(=O)O)C1 [Example 491] | 0.064 | 21 | 19.8
22 | Cc1c(COc2cc(OCc3cncc(C#N)c3)c(CNC[C@@H]3CCC(=O)N3)cc2Cl)cccc1-c1cccc(-c2ccc(CNC[C@@H]3CCC(=O)N3)cc2)c1C [Example 497] | 1.43 | 182 | 302
23 | Cc1c(COc2cc(OCc3cncc(C#N)c3)c(CN[C@@](C)(CO)C(=O)O)cc2Cl)cccc1-c1cccc(-c2cccc([C@@H](C)N)c2)c1C [Example 498] | 0.115 | 111 | 84.7
24 | Cc1c(COc2cc(OCc3cncc(C#N)c3)c(CN[C@@](C)(CO)C(=O)O)cc2Cl)cccc1-c1cccc(-c2cccc([C@H](C)N)c2)c1C [Example 499] | 0.093 | 59 | 86.5
25 | Cc1c(COc2cc(OCc3cncc(C#N)c3)c(CN[C@@](C)(CO)C(=O)O)cc2Cl)cccc1-c1cccc(-c2ccc(C3=NCCN3)cn2)c1C [Example 500] | 0.064 | 97 | 50.1
26 | COc1cc(-c2cccc(-c3cccc(COc4cc(OCc5cncc(C#N)c5)c(CN[C@@](C)(CO)C(=O)O)cc4Cl)c3C)c2C)ccc1C1=NCCN1 [Example 501] | 0.064 | 60 | 35.3
27 | COc1cc(-c2cccc(-c3cccc(COc4cc(OCc5cncc(C#N)c5)c(CNC[C@@H](O)CC(=O)O)cc4Cl)c3C)c2C)ccc1C1=NCCN1 [Example 502] | 0.081 | 100 | 85.2
28 | Cc1c(COc2cc(OCc3cncc(C#N)c3)c(CN[C@@](C)(CO)C(=O)O)cc2Cl)cccc1-c1cccc(-c2ccc(C3=NCCN3)cc2)c1C [Example 503] | 0.064 | 81 | 42.1
29 | COc1nc(-c2cccc(-c3cccc(COc4cc(OCc5cncc(C#N)c5)c(CN[C@@](C)(CO)C(=O)O)cc4Cl)c3C)c2C)ccc1C1=NCCN1 [Example 504] | 0.064 | 68 | 47.8
30 | COc1nc(-c2cccc(-c3cccc(COc4cc(OCc5cncc(C#N)c5)c(CNC[C@@H](O)CC(=O)O)cc4Cl)c3C)c2C)ccc1C1=NCCN1 [Example 505] | 0.064 | 80 | 55
31 | COc1cc(-c2cccc(-c3cccc(COc4cc(OCc5cncc(C#N)c5)c(CN[C@@](C)(CO)C(=O)O)cc4Cl)c3C)c2C)ccc1CN [Example 506] | 0.239 | 204 | 172
